By Kd is commonly meant the equilibrium constant for the complex coming apart.

Molecules are shown by their SMILES. Several values for one entry are separate records, joined by “and”; a condition that tells them apart may be missing. Equal entries are not always repeated.

We go through one molecule from article PMC5656594 (Scientific Reports, 2017).

The target in test [1] is T1, S217K IN^PFV-DNA complex (Human spumaretrovirus, UniProt P14350, G968K/S969G).
T1 construct: The pET-IN-PFV plasmid containing the full-length IN gene was used for mutagenesis; His; made in house; host or cells: E. coli BL21-CodonPlus (DE3)-RIPL
Description: Fluorescence enhancement DTG-binding assay, S217K mutant. The settings on record: DTG 0.3 μM, 1 mM Mg2+. Set-up: species or system prototype foamy virus (PFV). How it is done:
(§1) The fluorescence intensity was monitored as a function of (IN + DNA) and plotted as a function of the binary IN-DNA complex concentration (measured as explained in Fig. 2E legend). […] The graphs in panels A-B show representative data of three independent experiments.
(§2) Fluorescence excitation and emission spectra of INSTIs were recorded on a Eclipse (Varian) spectrofluorimeter equipped with two polarizers for anisotropy measurements and a thermostated cell holder, using 80 µl solutions placed in micro cells (Hellma). Drug, IN and DNA concentrations, excitation/emission slit settings as well as the photomultiplier tube (PMT) voltage are specified in figure legends. The intensity value was corrected from the inner filter effect. The steady-state fluorescence anisotropy was calculated using: r = (IVV–G x IVH)/(IVV + 2GxIVH) where IVV and IVH correspond to vertical and horizontal components, respectively, when the sample is excited with vertically polarized light. G represents the correction factor for the difference in the monochromator transmission between // and ⊥ polarized components: G = IHV/IHH. All experiments were performed at 25 °C in buffer A: 20 mM Tris pH 7.2, 50 mM NaCl, 1 mM DTT and 10% (v/v) DMSO.

For test [2], the target named is T2, E221A IN^PFV-DNA complex (Human spumaretrovirus, UniProt P14350, E972A/G968S/S969G).
T2 construct: The pET-IN-PFV plasmid containing the full-length IN gene was used for mutagenesis; His; made in house; host or cells: E. coli BL21-CodonPlus (DE3)-RIPL
Description: Fluorescence enhancement DTG-binding assay, E221A catalytic mutant. Set-up: species or system prototype foamy virus (PFV). To be noted: 1 mM Mg2+. The protocol: (§3) The fluorescence intensity was monitored as a function of (IN + DNA) and plotted as a function of the binary IN-DNA complex concentration (measured as explained in Fig. 2E legend). […] (B) The percentage of ternary complexes was calculated using DTG fluorescence enhancement. […] The graphs in panels A-B show representative data of three independent experiments. […] "DTG" is taken from the y-axis title of the same panel.
(§4) To note, Mg^2+ is dispensable for the overall DNA-binding step of IN[32],[43]–[45] and thus, the loss of Mg^2+ chelation is not contradictory with results showing that catalytic mutants bind equally well to DNA and in a similar manner than wt IN (Supplementary Fig. S6). However, G187R cannot be considered as a catalytic mutant since it sustains a significant ST activity although weak (≈10% of the wt activity; Fig. 6).
(§5) Fluorescence excitation and emission spectra of INSTIs were recorded on a Eclipse (Varian) spectrofluorimeter equipped with two polarizers for anisotropy measurements and a thermostated cell holder, using 80 µl solutions placed in micro cells (Hellma). […] The steady-state fluorescence anisotropy was calculated using: r = (IVV–G x IVH)/(IVV + 2GxIVH) where IVV and IVH correspond to vertical and horizontal components, respectively, when the sample is excited with vertically polarized light. […]

Test [3] relates to DNA alone (PFV^CAAT). Description: DTG fluorescence enhancement in the presence of DNA alone. It is filed as binding, prototype foamy virus (PFV). The settings on record: 1 mM Mg2+. The protocol: The three other conditions (i→iii) led to superimposable spectra. To note, the presence of IN/DNA complexes accounts for light scattering on the blue side of the spectrum.
All experiments were performed in the presence of 1 mM Mg^2+ (see Supplementary Fig. S4 for [Mg^2+] = 10 mM). λex = 345 nm and PMT = 980 V (Δλex = Δλem = 5 nm). […] Contributions of Raman and Rayleigh scattering were eliminated in the inset spectrum: (viii) = (iv)–(vii) where (vii) represents the proper spectrum of Mg^2+-DTG in the context of the binary IN-DNA complex. […] [Mg^2+] = 1 mM. Inset: fluorescence intensity (375–385 nm) as a function of (IN + DNA). The arrows indicate the intensity level after addition of 500 mM NaCl. Emission spectra are representative of 3 independent experiments for each condition of (IN + DNA). […] (E) Measurement of the binary IN-DNA complex formation. The formation of binary complexes was performed by monitoring the fluorescence anisotropy (r) of DNA (Fl-PFV^CAAT) under similar experimental conditions of the DTG-binding assay (panels C-D). Top, varying stoichiometric concentrations of IN and DNA were mixed and the r parameter was monitored. […]
(§6) Fluorescence excitation and emission spectra of INSTIs were recorded on a Eclipse (Varian) spectrofluorimeter equipped with two polarizers for anisotropy measurements and a thermostated cell holder, using 80 µl solutions placed in micro cells (Hellma). […]

Test [4] can be described thus: DTG-Mg2+ interaction, titration of DTG fluorescence emission enhancement as a function of [Mg2+]. The class given is physicochemical. The settings on record: DTG 1 μM, λex 345 nm, buffer A, hyperbolic titration curve; read-out: Kd of the DTG-Mg^2+ interaction.
From the text: Figure 1 Fluorescence properties of INSTIs in solution and influence of divalent cations. […] Corresponding excitation and emission spectra are shown in Supplementary Fig. S1. Excitation and emission slits: Δλex = Δλem = 5 nm (PMT = 750 V). The fluorescence enhancement factor corresponds to the drug fluorescence emission intensity for a given Mg^2+ concentration normalized by the intensity in the absence of Mg^2+. […] The emission intensity was reported as a function of [Mg^2+] (inset). […] The bar graphs in panels A and D show mean ± SD values from three independent experiments. […] Only [Mg2+] and λex: 345 nm appear in the panel, so the substance is left empty.
Furthermore, both drugs display a Mg^2+ dependence of fluorescence intensity, however with some differences. A slight increase of EVG fluorescence intensity was observed upon addition of Mg^2+ (a 3-fold increase for the two excitation modes from 0 to 10 mM Mg^2+; Fig. 1B). […] This Mg^2+-dependent enhancement is related to an increase of the fluorescence quantum yield since no Mg^2+-dependent change in the absorption spectrum was observed (Supplementary Fig. S2A).
as §6

Test [5] addresses T1, S217K IN^PFV-DNA complex. The experiment in a line: DTG fluorescence anisotropy binding assay, S217K mutant. On the set-up: species or system prototype foamy virus (PFV). To be noted: 10 mM Mg2+, DTG 0.6 μM, [IN]=[DNA]=2.4 μM. The protocol:
as §3, §4, §5
Background: Polarisation of emitted light reports the rotation of a fluorescent probe.

The test system of test [6] is S217H IN^PFV mutant. The settings on record: S217H versus wt; cited from earlier work.
The target in test [7] is T3, G187R IN^PFV-DNA complex (Human spumaretrovirus, UniProt P14350, G938R/G968S/S969G).
T3 construct: The pET-IN-PFV plasmid containing the full-length IN gene was used for mutagenesis; His; made in house; host or cells: E. coli BL21-CodonPlus (DE3)-RIPL
The experiment in a line: Fluorescence enhancement DTG-binding assay, G187R mutant. On the set-up: species or system prototype foamy virus (PFV). To be noted: DTG 0.3 μM, 1 mM Mg2+. The protocol: as §1, §2

Consider `C[C@@H]1CCO[C@H]2Cn3cc(C(=O)NCc4ccc(F)cc4F)c(=O)c(O)c3C(=O)N12` [DTG, dolutegravir], for which the “DTG binding to S217K” value in test [1] was “No binding”. The “DTG binding to E221A catalytic mutant” value in test [2] is listed as “loss of DTG-binding”. In test [3], the “DTG binding to DNA alone” value was “no DTG binding”. Further, the Kd in test [4] is ~1.2 mM and 1 to 2 mM. Moreover, the “DTG binding to S217K by DTG anisotropy” value in test [5] is given as “DTG-binding defects”. In addition, in test [6], the “decrease in DTG susceptibility” value is 2–3 fold. Also, the “DTG binding to G187R” value in test [7] is listed as “No binding”.
